Results on 4 compounds are retold here after patent US20150196507A1, “CONTROL OF MILK PRODUCTION AND MAMMARY INVOLUTION” (Amelgo, LLC, priority 2009, published 2015).

The test system of assay [1] is multiparous Holstein cows. Kind of assay: Intramammary infusion at dry-off in Holstein cows (milk yield, milk composition, plasma lactose). The format is in vivo, cow. As to conditions: for milk yield decline: day one following initiation of treatments, 5 mg in 5 ml carrier per quarter, control down 7.5 kg; for drop in amount of milk versus cows not receiving any infusion: after the first of three daily infusions, FIG. 6. Here is the method: In a set of experiments, forty-five multiparous Holstein cows milked three times daily and producing at least 20 kg/day were randomly assigned to once a day milking and one of three intramammary treatments in each quarter for three days. A control group of fifteen cows received 5 ml of a carrier of 9:1 sterile water and oil via infusion. […] The third group of fifteen cows received a treatment of 5 ml the carrier containing 5 mg of the precursor for serotonin synthesis (5-HTP) via infusion.
The milk yield decline was greater for the second group (down 9.5 kg) and the third group (down 10.0 kg) than that of the first group (down 7.5 kg) on day one following the initiation of treatments (P<0.01).
The amount of milk dropped close to 10% for those cows receiving an infusion of 5-HTP versus cows not receiving any infusion.
Milk lactose, protein, and fat percentage were not affected by treatments, but the milk sodium to potassium ratio increased to 2.8 in the second group on day two as compared to 1.44 in the first group and 1.78 in the third group, (P<0.01).

Assay [2] has as its system primary human breast epithelial cells. The experiment in a line: TEER of human mammary cultures. The format is cell-based. As to conditions: for TEER change (FIG. 3): combination read at 36 hours. An excerpt: FIG. 3 is a graphic illustration of a similar experiment performed on mammary gland cultures biopsied from primary human breast epithelial cells.
Assay [3] deals with cultures of mammary tissues taken from a lactating mouse. The experiment in a line: Trans-epithelial electrical resistance (TEER) of mouse mammary tissue cultures. Also on record: dose or concentration left out as unconfirmed. It counts as cell-based. As to conditions: fluoxetine, measured at 48 hours.

Compound `N[C@@H](Cc1c[nH]c2ccc(O)cc12)C(=O)O` [5-HTP, 5-hydroxytryptophan] came in with a milk yield decline in assay [1] (P<0.01) of 10.0 kg. Also, the “drop in amount of milk versus cows not receiving any infusion” value in assay [1] (day two) is around 10%. The “milk sodium to potassium ratio” value in assay [1] (day two, first (control) group 1.44, P<0.01) stood at 1.78.
Turning to `CCN[C@@H](C)Cc1cccc(C(F)(F)F)c1` [dexfenfluramine], the “reduction in TEER” value in assay [2] (FIG. 3) amounted to 50%. The “TEER change (FIG. 2)” value in assay [3] is “decrease in TEER similar to that of the combination of phenelzine and fluoxetine”.
Turning to `NNCCc1ccccc1` [phenelzine], the “TEER change (FIG. 3)” value in assay [2] is “caused a decrease”. The “TEER change (FIG. 2)” value in assay [3] is recorded as “small but significant increase in TEER”.
With `CNCCC(Oc1ccc(C(F)(F)F)cc1)c1ccccc1` (centres unmarked) [fluoxetine], the “TEER change (FIG. 3)” value in assay [2] is “did not change TEER”. Further, in assay [1] (day 1 post-infusion, P<0.001), the “plasma lactose increase compared to the other two groups” value was “increased two-fold”. This compound also displayed a milk yield decline in assay [1] (P<0.01) of 9.5 kg. The “drop in amount of milk versus cows not receiving any infusion” value in assay [1] (day two) is around 31%.
